Key:
[1] = test system: murine pancreatic neuroendocrine tumor model; experiment: Murine pancreatic neuroendocrine tumor model; details: mouse, in vivo
[2] = test system: CRPC patients with evidence of bone metastases; experiment: Adaptive phase 2 trial (NCT00940225), case studies of the first three CRPC patients with bone metastases; format: in vivo, human; details: for PSA / serum tALP levels: Week 18
Method: In 2000, local disease recurrence was treated with radiation therapy. […] CAB with leuprolide and bicalutamide was initiated. […] All patients provided informed consent before study screening.

xenograft tumor models = experiment: Xenograft tumor models; details: in vivo

Compound: COc1cc2nccc(Oc3ccc(NC(=O)C4(C(=O)Nc5ccc(F)cc5)CC4)cc3)c2cc1OC [Compound 1, N-(4-{[6,7-bis(methyloxy)quinolin-4-yl]oxy}phenyl)-N′-(4-fluorophenyl)cyclopropane-1,1-dicarboxamide]
- overall survival [1]: substantially improves
- tumor invasiveness and metastasis [1]: significantly reduces
- increase in hemoglobin ([2]; Patient 1, Week 2 compared with baseline): 1.4 g/dL
- radiotracer uptake by bone metastases on bone scan ([2]; Patient 1, Week 6): dramatic decrease
- bone lesions ([2]; Patient 1, Week 12): near complete resolution
- PSA ([2]; Patient 1, 430 ng/mL at baseline): 93.5 ng/mL
- serum tALP levels ([2]; Patient 1, 689 U/L at baseline): 159 U/L
- bone pain ([2]; Patient 1, four weeks after start): significant reduction
- bone pain ([2]; Patient 2, Week 4): reduction
- radiotracer uptake by bone lesions on bone scan ([2]; Patient 2, Week 6): slight flair
- radiotracer uptake ([2]; Patient 2, Week 12): substantial reduction
- hemoglobin increase ([2]; Patient 2, Week 12 compared with baseline): 1.8 g/dL
- PSA peak ([2]; Patient 2, Week 16, after placebo Week 12 to 15, crossed over to Compound 1 at Week 15): ~6 fold of baseline
- PSA ([2]; Patient 2, subsequent to crossing over to Compound 1 from placebo): 2 fold of baseline
- hemoglobin increase ([2]; Patient 3, Week 2 compared with baseline): 2.2 g/dL
- radiotracer uptake on bone scan ([2]; Patient 3, Week 6): dramatic reduction
- bone lesions on bone scan ([2]; Patient 3, Week 12): complete resolution
- PSA ([2]; Patient 3, 2.4 ng/mL at screening): 1.2 ng/mL
- serum tALP levels ([2]; Patient 3, 869 U/L at baseline): 197 U/L
- pain ([2]; Patient 3, after three weeks): complete resolution
- uptake of radiotracer on bone scan ([2]; all three patients, summary): striking decrease
- bone lesions ([2]; three metastatic CRPC patients, summary): near complete resolution
- effect on tumors in xenograft tumor models (xenograft tumor models): tumor regression
